This note sets out measurements from patent EP1389624A1, “Phosphorous-containing cysteine and serine protease inhibitors” (CEPHALON, INC., priority 1995, dated 1997).

For the first test, the target named is T1, Calpain I (Homo sapiens, UniProt P07384).
T1 sequence (P07384 1-714): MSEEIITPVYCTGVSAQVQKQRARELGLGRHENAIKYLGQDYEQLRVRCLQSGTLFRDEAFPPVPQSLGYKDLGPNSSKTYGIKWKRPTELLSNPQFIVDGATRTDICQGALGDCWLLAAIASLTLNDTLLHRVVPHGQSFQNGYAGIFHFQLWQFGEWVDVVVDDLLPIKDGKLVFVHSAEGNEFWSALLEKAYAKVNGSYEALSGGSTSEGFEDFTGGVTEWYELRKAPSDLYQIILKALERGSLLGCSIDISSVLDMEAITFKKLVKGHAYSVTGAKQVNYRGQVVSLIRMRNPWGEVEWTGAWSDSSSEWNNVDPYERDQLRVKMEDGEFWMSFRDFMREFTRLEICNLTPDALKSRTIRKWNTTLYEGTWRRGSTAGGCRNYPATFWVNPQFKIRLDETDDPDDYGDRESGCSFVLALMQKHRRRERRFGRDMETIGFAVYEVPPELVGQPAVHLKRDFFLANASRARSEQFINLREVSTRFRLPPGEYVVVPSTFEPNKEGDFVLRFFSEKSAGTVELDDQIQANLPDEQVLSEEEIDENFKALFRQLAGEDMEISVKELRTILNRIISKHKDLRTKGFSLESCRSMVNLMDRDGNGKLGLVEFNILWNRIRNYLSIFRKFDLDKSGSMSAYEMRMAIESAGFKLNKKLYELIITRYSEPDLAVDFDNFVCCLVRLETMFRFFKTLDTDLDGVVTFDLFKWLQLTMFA
T1 sequence (P04632 1-268 partner): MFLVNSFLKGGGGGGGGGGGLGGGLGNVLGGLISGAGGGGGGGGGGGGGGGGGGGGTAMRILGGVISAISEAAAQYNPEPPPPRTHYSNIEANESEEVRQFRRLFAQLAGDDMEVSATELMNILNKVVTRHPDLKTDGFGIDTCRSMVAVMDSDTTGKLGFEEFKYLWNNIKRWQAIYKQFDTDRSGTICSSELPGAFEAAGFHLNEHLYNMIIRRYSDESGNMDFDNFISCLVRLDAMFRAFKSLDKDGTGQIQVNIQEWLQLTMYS
As to the kind of experiment: Inhibition and rate of inactivation of cysteine protease (calpain I) activity, Succ-Leu-Tyr-MNA substrate hydrolysis. The conditions noted are these: 0.1 uM compound; percent decrease in rate of substrate hydrolysis relative to no inhibitor.
Experimental: To evaluate inhibitory activity, stock solutions (40 times concentrated) of each compound to be tested were prepared in 100% anhydrous DMSO and 5 µl of each inhibitor preparation were aliquoted into each of three wells of a 96 well plate. […] To start the reaction, 20 µl of 50 mM CaCl2 in assay buffer was added to all wells of the plate, excepting three, which were used as background signal baseline controls. Substrate hydrolysis was monitored every 5 minutes for a total of 30 minutes. Substrate hydrolysis in the absence of inhibitor was linear for up to 15 minutes.
Inhibition of calpain I activity was calculated as the percent decrease in the rate of substrate hydrolysis in the presence of inhibitor (vi) relative to the rate in its absence (vo). Comparison between vo and vi was made within the linear range for substrate hydrolysis. […] Apparent second order rate constants were determined from analysis of reaction progress curves under pseudo-first order conditions. Each determination represents the mean of three or more independent single cuvette analyses continually monitored via a Perkin-Elmer LS50B spectrofluorimeter.
For the compound “(3S)-2-[3-[(N-Benzyloxycarbonyl-L-leucyl)amino]-2-oxo-4-phenylbutyl] 1H-phosphindoline 2-oxide [Example 62]”, the “% Inhib. @ 0.1 uM” value stood at 34%.

Staying with this test, now noted: apparent second order rate constant of inactivation from reaction progress curves under pseudo-first order conditions; mean of three or more determinations.
For the compound `CCOP(=O)(CC(=O)[C@H](Cc1ccccc1)NC(=O)[C@H](CC(C)C)NC(=O)OCc1ccccc1)c1ccccc1` (stereo partly drawn) [Example 64, Ethyl (3S)-[3-[(N-benzyloxycarbonyl-L-leucyl)amino]-2-oxo-4-phenylbutyl] (phenyl)phosphinate], the “kobs/I x 10^-3 M^-1s^-1” value is given as 4 x 10^-3 M^-1s^-1.

Regarding “(3S)-[3-[(N-Benzyloxycarbonyl-L-leucyl)amino]-2-oxo-4-phenylbutyl] [3-(morpholin-4-yl)propyl](phenyl)phosphinate [Example 61]”, the “kobs/I x 10^-3 M^-1s^-1” value is given as 17 x 10^-3 M^-1s^-1.

The same test, now with this note: read-out: % Inhib. @ 0.1 uM.
Take `CC(C)C[C@H](NC(=O)OCc1ccccc1)C(=O)N[C@@H](Cc1ccccc1)C(=O)COP1(=O)CC=CC1` [Example 63, (3S)-1-[[3-[(N-Benzyloxycarbonyl-L-leucyl)amino]-2-oxo-4-phenylbutyl]oxy]phosphol-3-ene 1-oxide]: the inhibition at 0.1 µM came out at 22%.

Regarding `CCOP(=O)(CC(=O)[C@H](Cc1ccccc1)NC(=O)[C@H](CC(C)C)NC(=O)OCc1ccccc1)c1ccccc1` (stereo partly drawn) [Example 64, Ethyl (3S)-[3-[(N-benzyloxycarbonyl-L-leucyl)amino]-2-oxo-4-phenylbutyl] (phenyl)phosphinate], the inhibition at 0.1 µM stood at 26%.

Consider `COP(=O)(O)C(=O)[C@H](CC(C)C)NC(=O)[C@H](CC(C)C)NC(=O)OCc1ccccc1` [Example 65, Methyl Hydrogen N-Benzyloxycarbonyl-L-leucyl-L-leucylphosphonate], for which the inhibition at 0.1 µM was found to be 19%.

On to `CCCCOP(=O)(OCCCC)C(=O)[C@H](CC(C)C)NC(=O)[C@H](CC(C)C)NC(=O)OCc1ccccc1` [Example 66, Dibutyl N-Benzyloxycarbonyl-L-leucyl-L-leucylphosphonate], for which the inhibition at 0.1 µM is 0%.

Turning to `CC(C)C[C@H](NC(=O)OCc1ccccc1)C(=O)N[C@@H](CC(C)C)C(=O)P(=O)(c1ccc(Cl)cc1)c1ccc(Cl)cc1` [Example 67, [Benzyloxycarbonyl-L-leucyl-L-leucyl]bis(4-chlorophenyl)phosphine oxide], the inhibition at 0.1 µM came out at 4%.

Regarding `CCOP(=O)(C(=O)[C@H](CC(C)C)NC(=O)[C@H](CC(C)C)NC(=O)OCc1ccccc1)c1ccccc1` (stereo partly drawn) [Example 68, Ethyl N-benzyloxycarbonyl-L-leucyl-L-leucyl(phenyl)phosphinate], the inhibition at 0.1 µM came to 0%.
